Laboratory results reported in patent publication US20100120858A1, “Piperidine Derivatives” (Pfizer Inc., priority 2006, published 2010).
Counter-ions that a name gives are not always drawn.

Key:
[1] = system: capsaicin-induced mechanical allodynia; experiment: Capsaicin-induced mechanical allodynia rat model; assay type: in vivo; settings: sc, male Sprague-Dawley rats, single subcutaneous 10 mg/kg dose on Day 7, measurement 1 hour post dose, mean of eight animals
Experimental: On Day 0, male Sprague-Dawley rats (about 150 g each) in the dark cycle were placed in suspended wire-bottom cages and allowed to acclimate for 0.5 hour in a darkened, quiet room. The Day 0 paw withdrawal threshold (PWT) was determined on the left hind paw by Von Frey hair assessment using the Dixon up and down method. After assessment, the plantar muscle of the right hind paw was injected with 100 μL of capsaicin (0.25% weight/volume (w/v) in 10% ethanol, 10% Tween 80, in sterile saline).
On Day 6, the PWT of the left hind paw (contralateral from the injected paw) was determined for each animal. Animals on Day 6 with PWT≦11.7 g were considered allodynic responders and were regrouped so that the animals in each cage had similar mean PWT values.
On Day 7, the responders were dosed subcutaneously with 10 mg of the test compound per kg of rat body weight in vehicle, or were administered vehicle (10 mL/kg) alone. The vehicle was phosphate buffered saline containing 2% CREMOPHOR® EL (BASF). The contralateral (i.e., left hind paw) PWT values were determined at 1 hour after the single dose, with the investigator blinded to the dosing scheme. For each animal, the Day 6 PWT value was subtracted from the Day 7, 1 hour PWT value for the 10 mg/kg doses of test compound to give a delta PWT value (Delta PWT (drug)), which represents the change in PWT due to the 1 hour drug treatment. In the case of vehicle-alone treated animals, the Day 6 PWT value was subtracted from the Day 7, 1 hour PWT for the 10 mL/kg doses of vehicle and the values averaged (mean Delta PWT (vehicle)). In addition, the Day 6 PWT was subtracted from the Day 0 PWT to give the baseline level (Baseline) of allodynia present in each animal. Percent inhibition of allodynia of each animal, normalized for vehicle controls, was determined using the following formula: […]

[2] = biological target: human norepinephrine transporter (Homo sapiens, UniProt P23975); experiment: Human norepinephrine (hNET) receptor binding, [125I]-RTI-55; settings: membranes of HEK-293 cells transfected with human norepinephrine transporter cDNA; 50 pM [125I]-RTI-55; IC50 converted by Cheng-Prusoff
human norepinephrine transporter, sequence (P23975 whole entry): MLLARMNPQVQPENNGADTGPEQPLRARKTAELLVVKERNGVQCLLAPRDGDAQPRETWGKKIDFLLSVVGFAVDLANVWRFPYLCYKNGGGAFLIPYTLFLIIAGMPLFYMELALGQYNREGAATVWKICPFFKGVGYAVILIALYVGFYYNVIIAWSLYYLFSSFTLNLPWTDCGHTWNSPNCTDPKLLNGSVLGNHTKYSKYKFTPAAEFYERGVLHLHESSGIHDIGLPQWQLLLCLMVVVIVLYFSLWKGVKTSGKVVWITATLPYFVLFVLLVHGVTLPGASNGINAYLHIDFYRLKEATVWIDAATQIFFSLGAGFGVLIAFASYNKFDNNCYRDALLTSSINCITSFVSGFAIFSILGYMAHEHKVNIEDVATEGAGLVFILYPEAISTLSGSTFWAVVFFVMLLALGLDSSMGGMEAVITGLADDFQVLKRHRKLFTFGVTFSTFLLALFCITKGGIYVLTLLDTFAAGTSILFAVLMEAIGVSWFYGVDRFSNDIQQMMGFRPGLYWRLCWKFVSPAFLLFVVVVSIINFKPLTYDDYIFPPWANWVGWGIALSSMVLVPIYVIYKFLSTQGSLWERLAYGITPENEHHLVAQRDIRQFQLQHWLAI
How it was run: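 Membranes from HEK-293 cells expressing human NET, incubated 90 min at room temperature with 50 pM [125I]-RTI-55 and compound (10^−5 to 10^−12 M) in Krebs-HEPES pH 7.4. Nonspecific binding defined with 10 μM desipramine; filter-bound counts gave IC50, converted to Ki by Cheng-Prusoff.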

[3] = biological target: human serotonin transporter (Homo sapiens, UniProt P31645); experiment: Human serotonin (hSERT) receptor binding, [125I]-RTI-55; settings: membranes of HEK-293 cells transfected with human serotonin transporter cDNA, IC50 converted by Cheng-Prusoff
human serotonin transporter, sequence (P31645 whole entry): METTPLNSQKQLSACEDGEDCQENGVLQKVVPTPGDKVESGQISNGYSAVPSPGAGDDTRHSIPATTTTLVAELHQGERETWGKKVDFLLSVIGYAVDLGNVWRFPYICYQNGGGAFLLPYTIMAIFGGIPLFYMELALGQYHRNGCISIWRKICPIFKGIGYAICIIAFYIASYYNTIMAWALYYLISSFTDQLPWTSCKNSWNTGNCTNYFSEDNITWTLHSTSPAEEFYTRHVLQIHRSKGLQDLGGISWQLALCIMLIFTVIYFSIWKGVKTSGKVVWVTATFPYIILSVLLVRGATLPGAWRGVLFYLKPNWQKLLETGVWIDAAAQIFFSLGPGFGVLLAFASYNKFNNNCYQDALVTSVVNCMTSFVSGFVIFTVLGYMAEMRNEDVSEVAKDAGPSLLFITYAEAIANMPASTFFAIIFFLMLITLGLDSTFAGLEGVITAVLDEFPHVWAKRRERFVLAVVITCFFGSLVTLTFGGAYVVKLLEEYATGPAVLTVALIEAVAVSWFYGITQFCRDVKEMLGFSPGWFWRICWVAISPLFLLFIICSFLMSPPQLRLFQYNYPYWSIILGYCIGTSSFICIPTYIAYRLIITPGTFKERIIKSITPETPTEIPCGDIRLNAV
How it was run: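 Membranes from HEK-293 cells expressing human SERT were incubated 90 min at room temperature in Krebs-HEPES buffer pH 7.4 with […] [125I]-RTI-55 and compound (10^−5 to 10^−12 M), in duplicate. Nonspecific binding defined with 10 μM citalopram; IC50 converted to Ki by Cheng-Prusoff.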

SMILES	inhibition in vivo at 10 mg/kg [1] [%]	Ki [2] [nM]	Ki [3] [nM]
Cc1ccc(OC[C@H]2CCCNC2)c(Oc2ccc(F)cc2F)n1 [Example 25, (S)-2-(2,4-difluoro-phenoxy)-6-methyl-3-(piperidin-3-ylmethoxy)-pyridine fumaric acid]	77	3.3	72
Cc1ccc(OC[C@H]2CCCNC2)c(Oc2cc(F)c(F)cc2F)n1 [Example 29, (S)-6-methyl-2-(2,4,5-trifluoro-phenoxy)-3-(piperidin-3-ylmethoxy)-pyridine fumaric acid]	11	5.3	130
Cc1ccc(OC[C@H]2CCCNC2)c(Oc2c(F)cc(F)cc2F)n1 [Example 44, (S)-6-methyl-2-(2,4,6-trifluoro-phenoxy)-3-(piperidin-3-ylmethoxy)-pyridine hydrochloride]	18	4.8	82
Cc1ccc(OC[C@H]2CCCNC2)c(Oc2c(F)cc(Cl)cc2F)n1 [Example 45, (S)-2-(4-chloro-2,6-difluoro-phenoxy)-6-methyl-3-(piperidin-3-ylmethoxy)-pyridine hydrochloride]	1	8.4	29
